# Data: patent US10907168B2, “Jasmonic acid pathway activator” (MEDICAGO INC., priority 2015, dated 2021)
# “Also recorded” adds a separate entry of the source.
# Tests used:
# [1] = system: 33-kDa pathogen-inducible PR-2 protein; test: 33-kDa PR-2 protein accumulation, immunodetection and densitometry; assay type: in vivo, Nicotiana benthamiana; details: non-infiltrated leaves; sprayed at 0.5 or 1 mM; ANOVA P>0.05
# From the text: FIGS. 2a-2c show the effect of MeJA treatment on PR-2 protein accumulation, agrobacteria numbers and transcript numbers of the two A. tumefaciens virulence proteins VirB1 and VirE1 in N. benthamiana leaves. […] Immunoblot signals were quantified using the Phoretix 2-D Expression software v. 2005 (NonLinear USA) after scanning nitrocellulose membranes with a Microtek ScanMaker II digitalizer (Microtek Laboratory). Data are the mean of three leaf replicates±SE. An arbitrary value of 1.0 was assigned to PR-2 level in control healthy leaves. […] Data are expressed as log numbers of colony-forming units (CFU) on agar plates and each point is the mean of five independent (leaf replicate) values±SE. […]
# Whole leaf proteins were extracted from three 1-cm^2 leaf discs in 400 μl of ice-cold 50 mM Tris-HCl, pH 7.5, containing 150 mM NaCl, by disrupting the leaf samples with tungsten carbide beads (Qiagen, Mississauga ON, Canada) in a Mini-Beadbeater apparatus (BioSpec, Bartlesville Okla., USA). […] RuBisCO small subunit was detected using polyclonal IgG raised in rabbit against a synthetic small subunit peptide (Agrisera, Vännäs, Sweden) and alkaline phosphatase-conjugated goat anti-rabbit IgG as secondary antibodies (Sigma-Aldrich). […] C5-1 light and heavy chains were detected with alkaline phosphatase-conjugated goat anti-mouse IgG antibodies (Sigma-Aldrich).
# A. tumefaciens VirB1 = test: Real-time RT PCR of VirB1 transcripts in agroinfiltrated leaves; assay type: in vivo, Agrobacterium tumefaciens; details: 1 mM, seven days post-treatment, Student's t-test P<0.05
# Protocol: mRNA transcripts for C5-1 and A. tumefaciens virulence proteins VirB1 and VirE1 were assayed by real-time RT PCR using an ABI PRISM 7500 Fast real-time PCR apparatus, system version 2.0.1 (Applied Biosystems, Carlsbad Calif., U.S.A.). Total RNA was extracted from two 1-cm^2 leaf discs collected on the third main stem leaf (Robert et al., 2013) using the Qiagen RNeasy plant mini kit (Qiagen), following the supplier's instructions. RNA samples were treated with DNase I (Roche Diagnostics) to remove contaminant DNA and assessed for quality and quantity using a Nanodrop® ND-1000 spectrophotometer (NanoDrop Technologies, Wilmington Del., USA). First-strand cDNA was synthesized from 500 ng of total RNA using 4 units of Omniscript reverse transcriptase (Qiagen) and 1 μM of oligo-dT (15) nucleotides (Roche). PCR reactions contained 10 μl of Fast SYBR Green PCR Master Mix (Applied Biosystems), 2 μl of cDNA template, and 2.5 μl each of appropriate forward and reverse primers at 625 nM final concentration (Table 1). A no-template mixture control was included in each 96-well plate. Amplification rounds consisted of a 20-s denaturation step at 95° C., followed by 40 two-step cycles of 3 s at 95° C. and 30 s at 60° C. […]
# C5-1 antibody = C5-1 antibody immunodetection after non-reducing SDS-PAGE; assay type: in vivo, Nicotiana benthamiana; details: agroinfiltrated leaves; treated 24 h before infiltration; 35S-type C5-1 vector
smiles,measurement,setting,value
"CC/C=C\C[C@H]1C(=O)CC[C@@H]1CC(=O)OC [MeJA, methyl jasmonate]",expression of 33-kDa PR-2 protein,[1],no significant effect
same,VirB1 mRNA transcripts versus control leaves,A. tumefaciens VirB1,negatively altered; also recorded: significantly lower value
same,C5-1 protein band patterns on immunoblot compared to control plants,C5-1 antibody,increased intensity
